From patent US10913742B2, “Oxadiazolones as transient receptor potential channel inhibitors” (Genentech, Inc., priority 2017, dated 2021) come the findings set out here.

In general, IC50 refers to the midpoint of a concentration-inhibition curve.

The assay deals with human TRPA1 (Homo sapiens (Human), UniProt O75762). Description: hTRPA1 CHO Ca2+ FLIPR assay (block of cinnamaldehyde induced calcium influx). It counts as cell-based. Conditions: CHO cells expressing TRPA1; 75 uM cinnamaldehyde; Hill coefficient fixed to 1.5; read-out: hTRPA1 (hTRPA1 CHO Ca2+ MAX EVO (IC50)). The procedure:
CHO cells expressing TRPA1 were plated into 384-well plates, incubated overnight at 37° C., and loaded with BD calcium indicator dye for 1 hr at 37° C. followed by 15 minutes at room temperature. The assay buffer was Hank's Balanced Salt Solution (HBSS) containing 20 mM HEPES (pH readjusted to 7.4) along with 0.02% BSA.
Following dye load and plate cool down, compounds were added to the cells using FLIPR Tetra. Plates were then incubated with compounds for 20 minutes at room temperature prior to adding agonist.
The IC50 results were fit with a standard Hill function, keeping the Hill coefficient (n) fixed to 1.5. Fixing the Hill coefficient will generally reduce variability of the IC50 determination. The IC50 results were individually examined to make sure the MIN and MAX points were set correctly prior to validation of the results.

Sequence of human TRPA1 (O75762 whole entry): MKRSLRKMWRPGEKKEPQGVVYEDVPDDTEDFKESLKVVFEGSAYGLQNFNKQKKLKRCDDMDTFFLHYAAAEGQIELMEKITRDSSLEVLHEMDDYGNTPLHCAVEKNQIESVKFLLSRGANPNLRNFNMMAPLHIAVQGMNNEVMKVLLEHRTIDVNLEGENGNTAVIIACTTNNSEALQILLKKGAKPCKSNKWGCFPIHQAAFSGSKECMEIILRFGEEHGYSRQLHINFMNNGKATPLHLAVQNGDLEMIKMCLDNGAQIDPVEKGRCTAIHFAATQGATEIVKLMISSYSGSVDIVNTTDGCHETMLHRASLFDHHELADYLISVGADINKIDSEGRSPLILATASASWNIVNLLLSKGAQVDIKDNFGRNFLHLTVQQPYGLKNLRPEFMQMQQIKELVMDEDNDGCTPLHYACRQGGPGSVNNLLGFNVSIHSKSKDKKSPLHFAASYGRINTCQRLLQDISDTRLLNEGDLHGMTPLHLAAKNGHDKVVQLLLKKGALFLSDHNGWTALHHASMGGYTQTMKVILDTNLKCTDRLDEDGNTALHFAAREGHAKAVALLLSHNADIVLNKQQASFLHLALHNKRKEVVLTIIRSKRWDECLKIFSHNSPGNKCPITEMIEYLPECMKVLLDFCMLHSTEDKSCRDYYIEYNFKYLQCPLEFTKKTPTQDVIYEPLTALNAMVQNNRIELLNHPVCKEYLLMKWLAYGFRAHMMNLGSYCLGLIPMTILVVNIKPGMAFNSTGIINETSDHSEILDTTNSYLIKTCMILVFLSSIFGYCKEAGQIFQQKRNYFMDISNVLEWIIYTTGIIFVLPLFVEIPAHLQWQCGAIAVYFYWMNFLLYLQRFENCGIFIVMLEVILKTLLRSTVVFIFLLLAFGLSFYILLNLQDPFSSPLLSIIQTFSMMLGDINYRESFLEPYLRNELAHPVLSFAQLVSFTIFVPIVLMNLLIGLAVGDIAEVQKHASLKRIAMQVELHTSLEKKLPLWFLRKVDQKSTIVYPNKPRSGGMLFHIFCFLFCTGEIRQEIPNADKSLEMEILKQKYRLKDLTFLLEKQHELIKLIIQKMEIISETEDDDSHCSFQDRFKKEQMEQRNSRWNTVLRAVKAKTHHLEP

Take `Cc1ccnc2ncn(Cc3nn([C@H]4C[C@](F)(c5ccc(C#N)cc5)C4)c(=O)o3)c(=O)c12` [compound 77, 4-[1-fluoro-3-[5-[(5-methyl-4-oxo-pyrido[2,3-d]pyrimidin-3-yl)methyl]-2-oxo-1,3,4-oxadiazol-3-yl]cyclobutyl] benzonitrile]: the IC50 was 21.4 nM.
As for `Cn1cnc2ncn(Cc3nn([C@H]4C[C@H](c5ccc(C#N)cc5)C4)c(=O)o3)c(=O)c21` [compound 71, 4-[3-[5-[(7-methyl-6-oxo-purin-1-yl)methyl]-2-oxo-1,3,4-oxadiazol-3-yl]cyclobutyl]benzonitrile], the figure is 59.7 nM; as for `COc1ccc(CCn2nc(Cn3cnc4ncn(C)c4c3=O)oc2=O)cc1` [compound 11, 3-(4-methoxyphenethyl)-5-((7-methyl-6-oxo-6H-purin-1(7H)-yl)methyl)-1,3,4-oxadiazol-2(3H)-one], 278 nM.
As for `Cn1cnc2ncn(Cc3nn(CCc4ccc(OC(F)F)cc4)c(=O)o3)c(=O)c21` [compound 2, 3-(4-(difluoromethoxy)phenethyl)-5-((7-methyl-6-oxo-6H-purin-1(7H)-yl)methyl)-1,3,4-oxadiazol-2(3H)-one], the figure is 211 nM.
Take `Cn1cnc2ncn(Cc3nn(C[C@H](F)c4ccc(OC(F)(F)F)cc4)c(=O)o3)c(=O)c21` (racemic) [compound 109, 5-[(7-methyl-6-oxo-purin-1-yl)methyl]-3-[rac-(2R)-2-fluoro-2-[4-(trifluoromethoxy)phenyl]ethyl]-1,3,4-oxadiazol-2-one]: the 50% inhibitory concentration (IC50) was 19.1 nM.
As for `Cn1cnc2ncn(Cc3nn([C@H]4C[C@](F)(c5ccc(Cl)cc5)C4)c(=O)o3)c(=O)c21` [compound 105, trans-3-[3-(4-chlorophenyl)-3-fluoro-cyclobutyl]-5-[(7-methyl-6-oxo-purin-1-yl)methyl]-1,3,4-oxadiazol-2-one], the figure is 64 nM; as for `Cn1cnc2ncn(Cc3nn(CCc4ccc(Cl)s4)c(=O)o3)c(=O)c21` [compound 21, 3-(2-(5-chlorothiophen-2-yl)ethyl)-5-((7-methyl-6-oxo-6H-purin-1(7H)-yl)methyl)-1,3,4-oxadiazol-2(3H)-one], 286 nM; as for `Cn1cnc2c(C#N)nn(Cc3nn(CCc4ccc(Cl)cc4)c(=O)o3)c2c1=O` [compound 22, 1-([4-[2-(4-chlorophenyl)ethyl]-5-oxo-4,5-dihydro-1,3,4-oxadiazol-2-yl]methyl)-6-methyl-7-oxo-1H,6H,7H-pyrazolo[4,3-d]pyrimidine-3-carbonitrile], 14 nM.
The value for `Cn1cnc2ncn(Cc3nn(C[C@H](F)c4ccc(Br)cc4)c(=O)o3)c(=O)c21` [compound 44, (R)-3-(2-(4-bromophenyl)-2-fluoroethyl)-5-((7-methyl-6-oxo-6H-purin-1(7H)-yl)methyl)-1,3,4-oxadiazol-2(3H)-one] was 10 nM; that for `Cn1c(=O)ccc2ncn(Cc3nn([C@H]4C[C@H](c5ccc(Cl)cc5)C4)c(=O)o3)c(=O)c21` [compound 83, 3-((4-((trans)-3-(4-chlorophenyl)cyclobutyl)-5-oxo-4,5-dihydro-1,3,4-oxadiazol-2-yl)methyl)-5-methylpyrido[3,2-d]pyrimidine-4,6(3H,5H)-dione] was 15.2 nM; that for `Cn1ccc2cc(CCn3nc(Cn4cnc5ncn(C)c5c4=O)oc3=O)ccc21` [compound 29, 3-[2-(1-methylindol-5-yl)ethyl]-5-[(7-methyl-6-oxo-purin-1-yl)methyl]-1,3,4-oxadiazol-2-one] was 87 nM.
As for `Cc1nc(C)n2ncn(Cc3nn(CCc4ccc(Cl)cc4)c(=O)o3)c(=O)c12` [compound 13, 3-(4-chlorophenethyl)-5-((5,7-dimethyl-4-oxoimidazo[1,5-f][1,2,4]triazin-3(4H)-yl)methyl)-1,3,4-oxadiazol-2(3H)-one], the figure is 265 nM; as for `Cn1cnc2ncn(Cc3nn([C@@H]4CC[C@@H](c5ccc(Cl)cc5)C4)c(=O)o3)c(=O)c21` [compound 100, 5-[(7-methyl-6-oxo-purin-1-yl)methyl]-3-[(1R,3R)-3-(4-chlorophenyl)cyclopentyl]-1,3,4-oxadiazol-2-one], 9.59 nM.
For the molecule `Cc1cc(C#N)nc2ncn(Cc3nn([C@H]4C[C@](F)(c5ccc(F)cc5)C4)c(=O)o3)c(=O)c12` [compound 61, 3-[[4-[3-fluoro-3-(4-fluorophenyl)cyclobutyl]-5-oxo-1,3,4-oxadiazol-2-yl]methyl]-5-methyl-4-oxo-pyrido[2,3-d]pyrimidine-7-carbonitrile], the IC50 was found to be 11.2 nM.
As for `Cn1cnc2ncn(Cc3nn(CCc4ccc(OC(F)(F)F)cc4)c(=O)o3)c(=O)c21` [compound 10, 5-((7-methyl-6-oxo-6H-purin-1(7H)-yl)methyl)-3-(4-(trifluoromethoxy)phenethyl)-1,3,4-oxadiazol-2(3H)-one], the figure is 86 nM; as for `Cn1cnc2cnn(Cc3nn([C@H]4C[C@H](c5ccc(Cl)cc5)C4)c(=O)o3)c(=O)c21` [compound 89, 3-[3-(4-chlorophenyl)cyclobutyl]-5-[(3-methyl-4-oxo-imidazo[4,5-d]pyridazin-5-yl)methyl]-1,3,4-oxadiazol-2-one], 45.7 nM; as for `Cc1ccnc2ncn(Cc3nn([C@H]4C[C@](F)(c5ccc(Cl)cc5)C4)c(=O)o3)c(=O)c12` [compound 104, 3-[3-(4-chlorophenyl)-3-fluoro-cyclobutyl]-5-[(5-methyl-4-oxo-pyrido[2,3-d]pyrimidin-3-yl)methyl]-1,3,4-oxadiazol-2-one], 29.6 nM.
`Cn1cnc2ncn(Cc3nn([C@H]4C[C@H](c5ccccc5)C4)c(=O)o3)c(=O)c21` [compound 51, 5-[(7-methyl-6-oxo-purin-1-yl)methyl]-3-(3-phenylcyclobutyl)-1,3,4-oxadiazol-2-one]: the IC50 turned out to be 168 nM.
As for `C[C@@H](Cn1nc(Cn2cnc3ncn(C)c3c2=O)oc1=O)c1ccc(Cl)cc1` [compound 20, (R)-3-(2-(4-chlorophenyl)propyl)-5-((7-methyl-6-oxo-6H-purin-1(7H)-yl)methyl)-1,3,4-oxadiazol-2(3H)-one], the figure is 812 nM.
For the molecule `Cn1cnc2ncn(Cc3nn([C@H]4C[C@H](Oc5cccc(C#N)c5)C4)c(=O)o3)c(=O)c21` [compound 62, 3-[3-[5-[(7-methyl-6-oxo-purin-1-yl)methyl]-2-oxo-1,3,4-oxadiazol-3-yl]cyclobutoxy]benzonitrile], the IC50 is 45.5 nM.
The value for `C[C@H](Cn1nc(Cn2cnc3ncn(C)c3c2=O)oc1=O)c1ccc(Cl)cc1` [compound 19, (S)-3-(2-(4-chlorophenyl)propyl)-5-((7-methyl-6-oxo-6H-purin-1(7H)-yl)methyl)-1,3,4-oxadiazol-2(3H)-one] was 34 nM; that for `Cn1cnc2ncn(Cc3nn(CCc4ccc(Cl)cc4F)c(=O)o3)c(=O)c21` [compound 41, 3-(4-chloro-2-fluorophenethyl)-5-((7-methyl-6-oxo-6H-purin-1(7H)-yl)methyl)-1,3,4-oxadiazol-2(3H)-one] was 492 nM.
The value for `Cc1ccnc2ncn(Cc3nn([C@H]4C[C@](F)(c5cccc(F)c5)C4)c(=O)o3)c(=O)c12` [compound 75, 3-[3-fluoro-3-(3-fluorophenyl)cyclobutyl]-5-[(5-methyl-4-oxo-pyrido[2,3-d]pyrimidin-3-yl)methyl]-1,3,4-oxadiazol-2-one] was 40.5 nM.
For the molecule `Cc1ccnc2ncn(Cc3nn([C@H]4C[C@H](c5ccc(Cl)cc5)C4)c(=O)o3)c(=O)c12` [compound 107, 3-[3-(4-chlorophenyl)cyclobutyl]-5-[(5-methyl-4-oxo-pyrido[2,3-d]pyrimidin-3-yl)methyl]-1,3,4-oxadiazol-2-one], the half-inhibitory concentration (IC50) is 6.3 nM.
`Cn1cnc2ncn(Cc3nn(CC(F)c4ccc5ccccc5c4)c(=O)o3)c(=O)c21` (stereo in doubt) [compound 38, 5-[(7-methyl-6-oxo-purin-1-yl)methyl]-3-[(2S)-2-fluoro-2-(2-naphthyl)ethyl]-1,3,4-oxadiazol-2-one]: the IC50 worked out at 7 nM.
The value for `Cn1cnc2ncn(Cc3nn([C@H]4C[C@H](Oc5ccc(Cl)cc5)C4)c(=O)o3)c(=O)c21` [compound 69, 3-[3-(4-chlorophenoxy)cyclobutyl]-5-[(7-methyl-6-oxo-purin-1-yl)methyl]-1,3,4-oxadiazol-2-one] was 785 nM; that for `Cn1cnc2ncn(Cc3nn(CCc4ccc(Br)c(Cl)c4)c(=O)o3)c(=O)c21` [compound 25, 1-([4-[2-(4-bromo-3-chlorophenyl)ethyl]-5-oxo-4,5-dihydro-1,3,4-oxadiazol-2-yl]methyl)-7-methyl-6,7-dihydro-1H-purin-6-one] was 132 nM.
As for `Cn1cnc2ncn(Cc3nn([C@H]4C[C@H](Oc5cccc(F)c5)C4)c(=O)o3)c(=O)c21` [compound 63, trans-3-[3-(3-fluorophenoxy)cyclobutyl]-5-[(7-methyl-6-oxo-purin-1-yl)methyl]-1,3,4-oxadiazol-2-one], the figure is 11.5 nM; as for `Cc1ccnc2ncn(Cc3nn([C@H]4C[C@H](c5ccc(C#N)cc5)C4)c(=O)o3)c(=O)c12` [compound 79, 4-[3-[5-[(5-methyl-4-oxo-pyrido[2,3-d]pyrimidin-3-yl)methyl]-2-oxo-1,3,4-oxadiazol-3-yl]cyclobutyl]benzonitrile], 2.58 nM.
As for `Cc1ccnc2ncn(Cc3nn(CCc4ccc(Cl)cc4)c(=O)o3)c(=O)c12` [compound 7, 3-[2-(4-chlorophenyl)ethyl]-5-[(5-methyl-4-oxo-pyrido[2,3-d]pyrimidin-3-yl)methyl]-1,3,4-oxadiazol-2-one], the figure is 12 nM.
